From ChEMBL document CHEMBL1201862, “PubChem BioAssay data set” (2004)
Each block holds one compound with its values, some of them ahead of it. Active and inactive are the calls of the source.

Assays:
[1] = biological target: T1, High affinity choline transporter 1 (Homo sapiens, UniProt Q9GZV3); assay: CHT inhibitors, dose response, cell-based, 10-point CRC, membrane potential dye (AID 588401); type: functional;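 note: membrane potential dye fluorescence of choline-evoked depolarization via CHT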
T1 sequence (Q9GZV3 whole entry): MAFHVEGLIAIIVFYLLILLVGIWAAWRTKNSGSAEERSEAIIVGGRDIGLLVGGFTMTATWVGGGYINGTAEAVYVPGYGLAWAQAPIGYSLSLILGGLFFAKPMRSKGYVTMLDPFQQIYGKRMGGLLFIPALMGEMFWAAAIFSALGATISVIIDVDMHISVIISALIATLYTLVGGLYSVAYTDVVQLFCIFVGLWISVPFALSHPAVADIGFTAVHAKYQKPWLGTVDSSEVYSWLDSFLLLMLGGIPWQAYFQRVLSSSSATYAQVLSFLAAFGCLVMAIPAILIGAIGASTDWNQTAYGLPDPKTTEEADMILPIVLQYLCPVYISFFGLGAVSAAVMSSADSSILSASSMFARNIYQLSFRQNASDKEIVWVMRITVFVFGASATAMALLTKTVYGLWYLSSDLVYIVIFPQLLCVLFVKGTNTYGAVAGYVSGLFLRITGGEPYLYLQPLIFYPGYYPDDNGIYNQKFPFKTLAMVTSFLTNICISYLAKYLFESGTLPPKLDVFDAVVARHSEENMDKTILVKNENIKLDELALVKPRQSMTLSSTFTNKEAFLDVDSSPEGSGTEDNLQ

[2] = biological target: T1, High affinity choline transporter 1; assay: CHT inhibitors, dose response, cell-based, 5-point CRC, membrane potential dye (AID 504840); type: functional
[3] = nonselective inhibitors of cellular cAMP signaling, dose response, counter-screen for MC4R biased antagonist project, cell-based, TR-FRET cAMP detection (AID 602305); type: functional;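 note: U2OS cells stimulated with forskolin near its EC80 as the cAMP inducer; potency is for inhibition of forskolin-stimulated cAMP signaling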
[4] = biological target: Melanocortin receptor 4 (Homo sapiens, UniProt P32245); assay: MC4R antagonist potency on cAMP, dose response, cell-based, TR-FRET, biased antagonists (AID 602298); type: functional;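 note: antagonist potency against agonist-stimulated cAMP production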
Chain of Melanocortin receptor 4 (P32245 whole entry, the tested form may be a part): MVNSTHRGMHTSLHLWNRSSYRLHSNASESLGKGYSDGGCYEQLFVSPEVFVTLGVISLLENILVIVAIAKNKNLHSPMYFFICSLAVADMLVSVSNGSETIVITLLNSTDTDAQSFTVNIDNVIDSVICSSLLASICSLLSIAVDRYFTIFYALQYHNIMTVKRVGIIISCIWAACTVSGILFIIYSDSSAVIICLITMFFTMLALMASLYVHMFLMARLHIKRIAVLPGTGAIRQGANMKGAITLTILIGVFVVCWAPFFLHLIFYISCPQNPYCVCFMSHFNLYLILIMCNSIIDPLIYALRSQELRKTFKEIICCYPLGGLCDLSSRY

[5] = tested on: CHO; assay: cytotoxicity in TLR9-MyD88 CHO cells, dose response, cytotoxicity control for TLR9-MyD88 binding inhibitor project, cell-based, luminescence (AID 588339); type: functional, hamster; settings: Cricetulus griseus;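 note: CHO cells stably coexpressing TLR9 and MyD88 fusions from primary screen; compound exposure lasted 48 hours before viability readout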
[6] = HepG2 cell cytotoxicity, dose response, cytotoxicity control for Shn3 inhibitor project, CellTiter-Glo, cherry-picked (AID 624134); type: functional, cell-based
[7] = tested on: HEK293; assay: NOD2 signaling inhibitors in MDP-stimulated cells, cell-based, uHTS, luminescence (AID 2001); type: functional; settings: Homo sapiens
[8] = Shn3 3'UTR reporter inhibitors, dose response, cell-based, Clone20 osteoblasts, firefly luciferase, cherry-picked (AID 624132); type: functional;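 note: firefly luciferase luminescence from reporter carrying the Shn3 3'UTR in osteoblasts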
[9] = tested on: HEK293; assay: cells; type: functional, cell-based; settings: Homo sapiens
[10] = control 3'UTR Renilla luciferase suppression, dose response, counter-screen for Shn3 inhibitor project, cell-based, Clone20-Shn3RL, cherry-picked (AID 624133); type: functional
[11] = biological target: Nucleotide-binding oligomerization domain-containing protein 2 (Homo sapiens, UniProt Q9HC29); assay: NOD2 signaling inhibitors, cell-based, luminescence, uHTS, HEK293 (AID 1566); type: functional
Chain of Nucleotide-binding oligomerization domain-containing protein 2 (Q9HC29 whole entry, the tested form may be a part): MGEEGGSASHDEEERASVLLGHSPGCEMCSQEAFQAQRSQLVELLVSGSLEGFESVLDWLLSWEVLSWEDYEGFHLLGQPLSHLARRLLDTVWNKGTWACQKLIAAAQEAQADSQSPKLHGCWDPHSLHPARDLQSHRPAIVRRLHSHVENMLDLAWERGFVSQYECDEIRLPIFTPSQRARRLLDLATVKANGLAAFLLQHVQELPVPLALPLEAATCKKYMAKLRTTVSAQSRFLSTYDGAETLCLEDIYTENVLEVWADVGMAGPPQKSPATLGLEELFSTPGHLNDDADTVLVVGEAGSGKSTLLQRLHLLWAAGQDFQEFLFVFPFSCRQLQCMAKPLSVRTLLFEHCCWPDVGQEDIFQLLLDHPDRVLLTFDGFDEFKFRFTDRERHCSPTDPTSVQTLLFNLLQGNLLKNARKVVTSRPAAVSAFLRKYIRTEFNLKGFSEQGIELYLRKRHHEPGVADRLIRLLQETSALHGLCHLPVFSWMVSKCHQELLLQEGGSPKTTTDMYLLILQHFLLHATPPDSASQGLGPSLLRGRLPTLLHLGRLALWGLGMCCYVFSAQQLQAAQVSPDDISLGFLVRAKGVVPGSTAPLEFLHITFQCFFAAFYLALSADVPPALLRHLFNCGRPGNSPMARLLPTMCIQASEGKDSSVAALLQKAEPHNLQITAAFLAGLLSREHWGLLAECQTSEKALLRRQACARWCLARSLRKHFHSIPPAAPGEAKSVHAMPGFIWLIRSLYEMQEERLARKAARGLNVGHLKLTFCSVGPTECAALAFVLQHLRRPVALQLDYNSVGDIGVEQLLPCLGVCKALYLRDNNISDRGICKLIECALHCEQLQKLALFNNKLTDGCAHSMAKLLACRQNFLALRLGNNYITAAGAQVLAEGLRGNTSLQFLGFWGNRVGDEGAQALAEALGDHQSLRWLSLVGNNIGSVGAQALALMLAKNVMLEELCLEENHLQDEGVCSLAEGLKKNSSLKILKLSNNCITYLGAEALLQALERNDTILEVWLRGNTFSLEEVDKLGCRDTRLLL

[12] = biological target: T2, Fatty acid synthase (Homo sapiens, UniProt P49327); assay: FAS thioesterase domain inhibitors, dose response, biochemical, kinetic fluorescence intensity (AID 624326); type: functional;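 note: rate of fluorescence rise from hydrolysis of a fluorogenic O-methyl fluorescein ester substrate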
T2 sequence (P49327 whole entry, the tested form may be a part): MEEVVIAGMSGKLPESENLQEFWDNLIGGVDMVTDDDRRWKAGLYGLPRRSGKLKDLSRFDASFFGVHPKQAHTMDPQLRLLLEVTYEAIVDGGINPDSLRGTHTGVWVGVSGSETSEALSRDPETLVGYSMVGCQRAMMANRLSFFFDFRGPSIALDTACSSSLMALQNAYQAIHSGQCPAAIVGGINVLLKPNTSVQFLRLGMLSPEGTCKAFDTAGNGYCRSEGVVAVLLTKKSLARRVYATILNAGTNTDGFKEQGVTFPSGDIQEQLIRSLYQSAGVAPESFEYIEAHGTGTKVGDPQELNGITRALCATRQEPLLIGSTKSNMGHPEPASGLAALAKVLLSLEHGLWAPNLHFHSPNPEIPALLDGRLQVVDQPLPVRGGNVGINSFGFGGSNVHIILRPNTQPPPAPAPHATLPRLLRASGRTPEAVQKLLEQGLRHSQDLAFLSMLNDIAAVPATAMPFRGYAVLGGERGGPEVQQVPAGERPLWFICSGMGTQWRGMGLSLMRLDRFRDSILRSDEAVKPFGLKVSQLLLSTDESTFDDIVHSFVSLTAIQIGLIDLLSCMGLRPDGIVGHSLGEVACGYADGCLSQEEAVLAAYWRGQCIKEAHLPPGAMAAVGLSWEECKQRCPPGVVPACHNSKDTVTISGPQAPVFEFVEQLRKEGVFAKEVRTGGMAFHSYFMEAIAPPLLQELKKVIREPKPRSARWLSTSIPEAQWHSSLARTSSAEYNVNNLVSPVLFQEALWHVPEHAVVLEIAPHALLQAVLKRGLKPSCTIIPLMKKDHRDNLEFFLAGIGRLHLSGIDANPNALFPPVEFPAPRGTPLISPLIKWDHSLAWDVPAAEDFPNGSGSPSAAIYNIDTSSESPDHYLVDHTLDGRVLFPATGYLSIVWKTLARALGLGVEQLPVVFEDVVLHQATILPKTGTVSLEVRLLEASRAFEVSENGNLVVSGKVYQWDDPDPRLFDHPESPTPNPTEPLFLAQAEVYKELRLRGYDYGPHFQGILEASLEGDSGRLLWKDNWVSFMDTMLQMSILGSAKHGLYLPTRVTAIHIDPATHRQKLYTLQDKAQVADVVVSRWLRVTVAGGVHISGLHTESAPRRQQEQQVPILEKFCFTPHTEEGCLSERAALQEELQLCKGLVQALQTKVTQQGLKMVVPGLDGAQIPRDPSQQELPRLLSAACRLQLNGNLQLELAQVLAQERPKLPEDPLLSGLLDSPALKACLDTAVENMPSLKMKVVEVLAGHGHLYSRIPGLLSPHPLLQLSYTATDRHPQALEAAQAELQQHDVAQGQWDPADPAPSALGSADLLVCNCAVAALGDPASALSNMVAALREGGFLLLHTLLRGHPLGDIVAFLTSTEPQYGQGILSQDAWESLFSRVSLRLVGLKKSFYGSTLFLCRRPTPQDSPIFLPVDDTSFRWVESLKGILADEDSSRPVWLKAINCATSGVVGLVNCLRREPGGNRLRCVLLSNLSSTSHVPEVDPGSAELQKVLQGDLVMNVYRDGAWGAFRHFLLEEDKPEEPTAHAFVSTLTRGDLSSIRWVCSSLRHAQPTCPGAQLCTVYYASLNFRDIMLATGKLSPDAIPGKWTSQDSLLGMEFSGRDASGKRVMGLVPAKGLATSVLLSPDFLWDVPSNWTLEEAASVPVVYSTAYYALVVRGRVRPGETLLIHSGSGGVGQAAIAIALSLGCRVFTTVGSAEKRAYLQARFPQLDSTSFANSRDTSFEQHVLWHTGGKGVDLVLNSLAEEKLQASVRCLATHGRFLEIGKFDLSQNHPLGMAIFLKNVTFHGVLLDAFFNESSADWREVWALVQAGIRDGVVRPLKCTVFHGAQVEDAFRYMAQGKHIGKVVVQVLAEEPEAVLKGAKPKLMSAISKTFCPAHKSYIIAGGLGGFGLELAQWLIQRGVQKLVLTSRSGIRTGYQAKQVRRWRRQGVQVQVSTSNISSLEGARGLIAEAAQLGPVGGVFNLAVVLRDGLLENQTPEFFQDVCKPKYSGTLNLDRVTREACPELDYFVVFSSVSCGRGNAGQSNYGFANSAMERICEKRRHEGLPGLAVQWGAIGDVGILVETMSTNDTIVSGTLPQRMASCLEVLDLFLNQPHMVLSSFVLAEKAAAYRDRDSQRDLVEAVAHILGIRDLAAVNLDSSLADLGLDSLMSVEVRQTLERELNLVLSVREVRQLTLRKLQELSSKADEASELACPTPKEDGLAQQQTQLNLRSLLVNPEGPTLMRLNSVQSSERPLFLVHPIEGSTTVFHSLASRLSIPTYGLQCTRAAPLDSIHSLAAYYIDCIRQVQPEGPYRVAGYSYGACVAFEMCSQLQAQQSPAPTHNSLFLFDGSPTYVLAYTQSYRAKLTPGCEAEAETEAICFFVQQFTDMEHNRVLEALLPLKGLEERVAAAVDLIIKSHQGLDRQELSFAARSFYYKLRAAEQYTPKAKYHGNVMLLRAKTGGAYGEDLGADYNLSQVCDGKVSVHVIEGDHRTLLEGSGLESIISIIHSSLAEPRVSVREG

[13] = biological target: T2, Fatty acid synthase; assay: FAS thioesterase domain inhibitors, dose response, biochemical, endpoint fluorescence intensity, uHTS hits (AID 624327); type: functional;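 note: fluorescence from hydrolysis of an O-methyl fluorescein acyl ester substrate by the enzyme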
[14] = tested on: INS1; assay: beta cell apoptosis inhibitors, cytokine rescue, dose response, luminescence, retest (AID 449756); type: functional, cell-based; settings: Rattus norvegicus;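 note: cell death triggered by IL-1 beta plus TNF-alpha plus IFN-gamma mixture; protective hits raise ATP signal compared with cytokine alone wells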
[15] = tested on: HEK293; assay: NOD1 signaling inhibitors, primary screen, cell-based, luminescence, uHTS (AID 1578); type: functional; settings: Homo sapiens
[16] = tested on: HEK293; assay: cells; type: functional, cell-based; settings: Homo sapiens; remark: listed apart in the source
[17] = biological target: Beta Lactamase (Pseudomonas aeruginosa, UniProt Q932Y6); assay: beta-lactamase reporter inhibitor potency, dose response, artefact control for TLR9-MyD88 binding inhibitor project, BLA reporter cells, FRET fluorescence (AID 588341); type: cell-based;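 note: cell based assay in CHO-K1 cells stably expressing beta-lactamase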
Chain of Beta Lactamase (Q932Y6 whole entry): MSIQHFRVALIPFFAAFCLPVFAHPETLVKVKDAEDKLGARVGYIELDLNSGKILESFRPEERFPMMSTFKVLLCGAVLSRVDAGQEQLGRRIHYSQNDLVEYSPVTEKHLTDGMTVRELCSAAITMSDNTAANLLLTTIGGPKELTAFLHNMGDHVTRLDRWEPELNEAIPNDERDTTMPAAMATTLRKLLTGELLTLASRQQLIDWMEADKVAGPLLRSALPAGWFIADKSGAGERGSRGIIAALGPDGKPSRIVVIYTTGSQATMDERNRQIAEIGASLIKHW

[18] = biological target: T1, High affinity choline transporter 1; assay: inhibitors of CHT choline uptake, dose response, cell-based, 3H-choline uptake, CHT LV-AA trafficking mutant, CRC (AID 602208); type: functional
[19] = ARNT/TACC3 interaction disruptors, potency, confirmation, biochemical, AlphaScreen, cherry-picked samples (AID 651703); type: functional, Homo sapiens;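 note: His-tagged ARNT PAS-B domain paired with GST-TACC3 E629A dimer coactivator fragment; potency of inhibitors that break up the complex and lower AlphaScreen signal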

IC50 [1]: 4.01 µM (active)
IC50 [2]: 10.2 µM (active)
Structure (SMILES): O=[N+]([O-])c1cc(C(F)(F)F)cc([N+](=O)[O-])c1N1CCCNCC1

Structure (SMILES): CC(C)(C)OC(=O)NCc1ccc(NC(=O)c2[nH]cnc2C(=O)N[C@@H](Cc2ccccc2)C(=O)OCc2ccccc2)cc1
IC50 [3]: > 64.6 µM (inactive)

IC50 [4]: > 64.6 µM (inactive)
Structure (SMILES): CC(C)(C)OC(=O)NCc1ccc(NC(=O)c2nc[nH]c2C(=O)N[C@@H](Cc2ccccc2)C(=O)OCc2ccccc2)cc1

Structure (SMILES): CCN(c1ccccc1)S(=O)(=O)c1ccc(NC(=O)c2nc(S(C)(=O)=O)ncc2Cl)cc1
IC50 [5]: 2.53 µM (active)
AC50 [6]: 15.2 µM (active)
IC50 [7]: 8.24 µM (inactive)
AC50 [8]: 562 nM (active)
IC50 [9]: > 20 µM (inactive)
AC50 [10]: 4.56 µM (active)
EC50 [11]: > 20 µM (inactive)
IC50 [12]: 3.48 µM (active)
IC50 [13]: 6.22 µM (active)
AC50 [14]: 5.28 µM (active)
EC50 [15]: > 20 µM (inactive)
IC50 [16]: > 20 µM (inactive)
IC50 [17]: 7.96 µM (active)

Structure (SMILES): O=C1OCCC1Sc1nc2ccccc2n1Cc1ccccc1 (stereo not drawn)
IC50 [3]: > 64.6 µM (inactive)
IC50 [4]: 10.9 µM (inactive)

Structure (SMILES): COc1ccc(C(=O)NCCC2=CCCCC2)cc1OC1CCN(C(C)C)CC1
IC50 [18]: 16 µM (active)
IC50 [1]: 3.16 µM (active)
IC50 [2]: 2.63 µM (active)

Structure (SMILES): C#CCOCCOCCOCCNc1nc(N2CCN(C(=O)[C@H](CCCCN)n3cc([C@@H](N)CO)nn3)CC2)nc(N2CCN(C(=O)[C@H](Cc3ccc(O)cc3)n3cc([C@@H](N)CC(C)C)nn3)CC2)n1
AC50 [19]: 121 µM (active)
